Assay results reported in patent publication EP4631959A2, “NOVEL MINIGASTRIN-DERIVED CHOLECYSTOKININ 2 RECEPTOR BINDING MOLECULES FOR IMAGING AND TARGETED RADIOTHERAPY” (priority 2022, dated 2024).
Like-named read-outs stand apart in the source and are kept apart here. Starred links: 1 amine or outer side, 2 acyl side, 3 side chain; linkers in the order of their positions; H or OH if unused. Non-standard residues stand in square brackets, D forms with d. Residues, ends and D or L forms follow the SMILES beside them. *: point of attachment. DOTAGA = O=C(O)CN1CCN(CC(=O)O)CCN(C(CCC(=O)*)C(=O)O)CCN(CC(=O)O)CC1; X2 = O=C(O)CN1CCN(CC(=O)O)CCN([C@H](CCC(=O)*)C(=O)O)CCN(CC(=O)O)CC1; Benzoyl(4-SiFtBu2) = CC(C)(C)[Si](F)(c1ccc(C(=O)*)cc1)C(C)(C)C; DOTA = O=C(O)CN1CCN(CC(=O)O)CCN(CC(=O)*)CCN(CC(=O)O)CC1; d(γGlu) = O=C(O)[C@@H](CCC(=O)[*:2])N[*:1]; Nle = CCCC[C@H](N)C(=O)O; dDap = NC[C@@H](N)C(=O)O

Legend:
CCK-2R = target: T1, CCK-2R (Rattus norvegicus, UniProt P30553); test: Determination of IC50: CCK-2R affinity on AR4-2J cells, competition with [^177Lu]Lu-DOTA-PP-F11N; type: binding; details: for IC50: AR4-2J cells
T1 construct: The CCK-2R expressing rat pancreatic tumor cells AR4-2J; host or cells: AR4-2J rat pancreatic tumor cells
T1 sequence (P30553 1-452): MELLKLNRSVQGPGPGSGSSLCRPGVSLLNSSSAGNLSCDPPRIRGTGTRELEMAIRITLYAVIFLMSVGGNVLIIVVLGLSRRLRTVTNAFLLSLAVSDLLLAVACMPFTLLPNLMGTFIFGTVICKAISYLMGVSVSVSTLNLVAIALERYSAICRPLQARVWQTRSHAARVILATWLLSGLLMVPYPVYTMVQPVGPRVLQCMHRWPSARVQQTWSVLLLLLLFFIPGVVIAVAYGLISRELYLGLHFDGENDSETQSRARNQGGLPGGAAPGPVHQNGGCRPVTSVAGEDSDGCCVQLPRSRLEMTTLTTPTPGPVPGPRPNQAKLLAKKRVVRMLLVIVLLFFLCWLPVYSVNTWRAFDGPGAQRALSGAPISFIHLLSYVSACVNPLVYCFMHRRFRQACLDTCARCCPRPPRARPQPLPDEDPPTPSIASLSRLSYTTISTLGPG
Procedure, shortened: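 Competitive displacement of 0.3 pmol/well [177Lu]Lu-DOTA-PP-F11N by compounds (10^-10 to 10^-4 M) on AR4-2J cells in BSA-supplemented medium, 3 h at 37 °C. Free label was collected from medium plus PBS rinse, and cell-bound label was recovered with 1 M NaOH, both measured by γ-counter. Each IC50 was determined twice, in triplicate.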

[1] = n-Octanol-PBS distribution coefficient (logD7.4); type: physicochemical; details: pH = 7.4, ^177Lu-labeled
Protocol: Approximately 1 MBq of the labeled tracer was dissolved in 1 mL of a 1/1 mixture (v/v) of phosphate buffered saline (PBS, pH = 7.4) and n-octanol in an Eppendorf tube (1.5 mL). After vigorous mixing of the suspension for 3 min at rt, the vial was centrifuged at 9,000 rpm for 5 min (Biofuge 15, Heraeus Sepatech, Osterode, Germany) and 200 µL aliquots of both layers were measured in a γ-counter. The experiment was repeated at least five times.

[2] = ^natLu-labeled, read-out: IC50 [nM] (n = 3), ^natLu-labeled
[3] = read-out: IC50 [nM] (n = 3), ^natLu-labeled, ^natLu-labeled

IC50 (CCK-2R; references ^natLu-labeled, other peptides without chelator, read-out: IC50 [nM] (n = 3)) | IC50 value, fold lower than [^natLu]Lu-DOTA-PP-F11N (CCK-2R; ^natLu-labeled) [fold] | SMILES | IC50 (CCK-2R; [2]) [nM] | logD7.4 (n ≥ 5), ^177Lu-labeled [1] | IC50 (CCK-2R; [3]) [nM]
– | – | CCCC[C@H](NC(=O)[C@H](Cc1c[nH]c2ccccc12)NC(=O)CNC(=O)[C@H](Cc1ccc(O)cc1)NC(=O)[C@H](C)NC(=O)CC[C@@H](NC(=O)CC[C@@H](NC(=O)CC[C@@H](NC(=O)CC[C@@H](NC(=O)CC[C@@H](NC(=O)CC[C@@H](NC(=O)[C@@H](CNC(=O)c1ccc([Si](F)(C(C)(C)C)C(C)(C)C)cc1)NC(=O)CN1CCN(CC(=O)O)CCN(CC(=O)O)CCN(CC(=O)O)CC1)C(=O)O)C(=O)O)C(=O)O)C(=O)O)C(=O)O)C(=O)O)C(=O)N[C@@H](CC(=O)O)C(=O)N[C@@H](Cc1ccccc1)C(N)=O [DOTA-MG-SiFA-19] | 7.54 ± 0.26 | −2.70 ± 0.09 | –
– | – | CCCC[C@H](NC(=O)[C@H](Cc1c[nH]c2ccccc12)NC(=O)CNC(=O)[C@H](Cc1ccc(O)cc1)NC(=O)[C@H](C)NC(=O)[C@@H](CCC(=O)O)NC(=O)[C@@H](CCC(=O)O)NC(=O)[C@@H](CCC(=O)O)NC(=O)[C@@H](CNC(=O)c1ccc([Si](F)(C(C)(C)C)C(C)(C)C)cc1)NC(=O)[C@@H](CCC(=O)O)NC(=O)[C@@H](CCC(=O)O)NC(=O)[C@@H](CCC(=O)O)NC(=O)CCC(C(=O)O)N1CCN(CC(=O)O)CCN(CC(=O)O)CCN(CC(=O)O)CC1)C(=O)N[C@@H](CC(=O)O)C(=O)N[C@@H](Cc1ccccc1)C(N)=O (stereo partly drawn) [DOTAGA-MG-SiFA-8, DOTAGA-glu-[dap(SiFA)^3]F11N] ({DOTAGA}-[dE][dE][dE][dDap](Benzoyl(4-SiFtBu2))[dE][dE][dE]AYGW[Nle]DF-NH2) | – | −2.19 ± 0.08 | 185 ± 14
– | – | CCCC[C@H](NC(=O)[C@H](Cc1c[nH]c2ccccc12)NC(=O)CNC(=O)[C@H](Cc1ccc(O)cc1)NC(=O)[C@H](C)NC(=O)CC[C@@H](NC(=O)CC[C@@H](NC(=O)CC[C@@H](NC(=O)CC[C@@H](NC(=O)CC[C@@H](NC(=O)[C@@H](CNC(=O)c1ccc([Si](F)(C(C)(C)C)C(C)(C)C)cc1)NC(=O)CC[C@@H](NC(=O)CCC(C(=O)O)N1CCN(CC(=O)O)CCN(CC(=O)O)CCN(CC(=O)O)CC1)C(=O)O)C(=O)O)C(=O)O)C(=O)O)C(=O)O)C(=O)O)C(=O)N[C@@H](CC(=O)O)C(=O)N[C@@H](Cc1ccccc1)C(N)=O (stereo partly drawn) [DOTAGA-MG-SiFA-18, DOTAGA-γ-glu-[dap(SiFA)^1]γ-F11N] ({DOTAGA-d(γGlu)}-[dDap](Benzoyl(4-SiFtBu2))[d(γGlu)][d(γGlu)][d(γGlu)][d(γGlu)][d(γGlu)]AYGW[Nle]DF-NH2) | – | −2.50 ± 0.02 | 33 ± 11.1
– | – | CCCC[C@H](NC(=O)[C@H](Cc1c[nH]c2ccccc12)NC(=O)CNC(=O)[C@H](Cc1ccc(O)cc1)NC(=O)[C@H](C)NC(=O)CC[C@@H](NC(=O)CC[C@@H](NC(=O)[C@@H](CNC(=O)c1ccc([Si](F)(C(C)(C)C)C(C)(C)C)cc1)NC(=O)CC[C@@H](NC(=O)CC[C@@H](NC(=O)CC[C@@H](NC(=O)CC[C@@H](NC(=O)CC[C@H](C(=O)O)N1CCN(CC(=O)O)CCN(CC(=O)O)CCN(CC(=O)O)CC1)C(=O)O)C(=O)O)C(=O)O)C(=O)O)C(=O)O)C(=O)O)C(=O)N[C@@H](CC(=O)O)C(=O)N[C@@H](Cc1ccccc1)C(N)=O [DOTAGA-MG-SiFA-15, DOTAGA-γ-glu-[dap(SiFA)^4]γ-F11N] ({X2-d(γGlu)-d(γGlu)-d(γGlu)-d(γGlu)}-[dDap](Benzoyl(4-SiFtBu2))[d(γGlu)][d(γGlu)]AYGW[Nle]DF-NH2) | 89.7 ± 14.5 | −2.34 ± 0.05 | –
– | – | CCCC[C@H](NC(=O)[C@H](Cc1c[nH]c2ccccc12)NC(=O)CNC(=O)[C@H](Cc1ccc(O)cc1)NC(=O)[C@H](C)NC(=O)[C@@H](CCC(=O)O)NC(=O)[C@@H](CCC(=O)O)NC(=O)[C@@H](CCC(=O)O)NC(=O)[C@@H](CCC(=O)O)NC(=O)[C@@H](CCC(=O)O)NC(=O)[C@@H](CCC(=O)O)NC(=O)[C@@H](CCC(=O)O)NC(=O)[C@@H](CNC(=O)c1ccc([Si](F)(C(C)(C)C)C(C)(C)C)cc1)NC(=O)CCC(C(=O)O)N1CCN(CC(=O)O)CCN(CC(=O)O)CCN(CC(=O)O)CC1)C(=O)N[C@@H](CC(=O)O)C(=O)N[C@@H](Cc1ccccc1)C(N)=O (stereo partly drawn) [DOTAGA-MG-SiFA-20, DOTAGA-dap(SiFA)-glu-F11N] ({DOTAGA}-[dDap](Benzoyl(4-SiFtBu2))[dE][dE][dE][dE][dE][dE][dE]AYGW[Nle]DF-NH2) | – | −2.19 ± 0.08 | 58 ± 11
7.5 ± 0.5 | 1.7 | CCCC[C@H](NC(=O)[C@H](Cc1c[nH]c2ccccc12)NC(=O)CNC(=O)[C@H](Cc1ccc(O)cc1)NC(=O)[C@H](C)NC(=O)CC[C@@H](NC(=O)CC[C@@H](NC(=O)CC[C@@H](NC(=O)CC[C@@H](NC(=O)CC[C@@H](NC(=O)CC[C@@H](NC(=O)CN1CCN(CC(=O)O)CCN(CC(=O)O)CCN(CC(=O)O)CC1)C(=O)O)C(=O)O)C(=O)O)C(=O)O)C(=O)O)C(=O)O)C(=O)N[C@@H](CC(=O)O)C(=O)N[C@@H](Cc1ccccc1)C(N)=O [DOTA-PP-γ-F11N, DOTA-γ-glu^1-γ-glu^2-γ-glu^3-γ-glu^4-γ-glu^5-γ-glu^6-Ala^7-Tyr^8-Gly^9-Trp^10-Nle^11-Asp^12-Phe^13-NH2, reference compound] ({DOTA-d(γGlu)-d(γGlu)-d(γGlu)-d(γGlu)-d(γGlu)-d(γGlu)}-AYGW[Nle]DF-NH2) | – | −4.38 ± 0.05 | –
– | – | CCCC[C@H](NC(=O)[C@H](Cc1c[nH]c2ccccc12)NC(=O)CNC(=O)[C@H](Cc1ccc(O)cc1)NC(=O)[C@H](C)NC(=O)CC[C@@H](NC(=O)CC[C@@H](NC(=O)CC[C@@H](NC(=O)CC[C@@H](NC(=O)CC[C@@H](NC(=O)CC[C@@H](NC(=O)CCCNC(=O)CCCNC(=O)[C@@H](CNC(=O)c1ccc([Si](F)(C(C)(C)C)C(C)(C)C)cc1)NC(=O)CN1CCN(CC(=O)O)CCN(CC(=O)O)CCN(CC(=O)O)CC1)C(=O)O)C(=O)O)C(=O)O)C(=O)O)C(=O)O)C(=O)O)C(=O)N[C@@H](CC(=O)O)C(=O)N[C@@H](Cc1ccccc1)C(N)=O [DOTA-MG-SiFA-45, DOTA-dap(SiFA)-(GABA)2-(γ-glu)6-F11N] | – | −1.98 ± 0.02 | 3.15 ± 0.12
– | – | CCCC[C@H](NC(=O)[C@H](Cc1c[nH]c2ccccc12)NC(=O)CNC(=O)[C@H](Cc1ccc(O)cc1)NC(=O)[C@H](C)NC(=O)CC[C@@H](NC(=O)CC[C@@H](NC(=O)CC[C@@H](NC(=O)CC[C@@H](NC(=O)CC[C@@H](NC(=O)[C@@H](CNC(=O)c1ccc([Si](F)(C(C)(C)C)C(C)(C)C)cc1)NC(=O)CC[C@@H](NC(=O)CC[C@@H](NC(=O)CC[C@@H](NC(=O)CC[C@@H](NC(=O)CCC(C(=O)O)N1CCN(CC(=O)O)CCN(CC(=O)O)CCN(CC(=O)O)CC1)C(=O)O)C(=O)O)C(=O)O)C(=O)O)C(=O)O)C(=O)O)C(=O)O)C(=O)O)C(=O)O)C(=O)N[C@@H](CC(=O)O)C(=O)N[C@@H](Cc1ccccc1)C(N)=O (stereo partly drawn) [DOTAGA-MG-SiFA-26, DOTAGA-(γ-glu)4-[dap(SiFA)^1]γ-F11N] ({DOTAGA-d(γGlu)-d(γGlu)-d(γGlu)-d(γGlu)}-[dDap](Benzoyl(4-SiFtBu2))[d(γGlu)][d(γGlu)][d(γGlu)][d(γGlu)][d(γGlu)]AYGW[Nle]DF-NH2) | – | −2.89 ± 0.04 | 37.1 ± 3.8
– | – | CCCC[C@H](NC(=O)[C@H](Cc1c[nH]c2ccccc12)NC(=O)CNC(=O)[C@H](Cc1ccc(O)cc1)NC(=O)[C@H](C)NC(=O)[C@@H](CCC(=O)O)NC(=O)[C@@H](CCC(=O)O)NC(=O)[C@@H](CCC(=O)O)NC(=O)[C@@H](CCC(=O)O)NC(=O)[C@@H](CNC(=O)c1ccc([Si](F)(C(C)(C)C)C(C)(C)C)cc1)NC(=O)[C@@H](CCC(=O)O)NC(=O)[C@@H](CCC(=O)O)NC(=O)CCC(C(=O)O)N1CCN(CC(=O)O)CCN(CC(=O)O)CCN(CC(=O)O)CC1)C(=O)N[C@@H](CC(=O)O)C(=O)N[C@@H](Cc1ccccc1)C(N)=O (stereo partly drawn) [DOTAGA-MG-SiFA-9, DOTAGA-glu-[dap(SiFA)^2]F11N] ({DOTAGA}-[dE][dE][dDap](Benzoyl(4-SiFtBu2))[dE][dE][dE][dE]AYGW[Nle]DF-NH2) | – | −2.67 ± 0.05 | 90 ± 2.3
– | – | CCCC[C@H](NC(=O)[C@H](Cc1c[nH]c2ccccc12)NC(=O)CNC(=O)[C@H](Cc1ccc(O)cc1)NC(=O)[C@H](C)NC(=O)CC[C@@H](NC(=O)CC[C@@H](NC(=O)CC[C@@H](NC(=O)CC[C@@H](NC(=O)CC[C@@H](NC(=O)CC[C@@H](NC(=O)CC[C@@H](NC(=O)CCCNC(=O)[C@@H](CNC(=O)c1ccc([Si](F)(C(C)(C)C)C(C)(C)C)cc1)NC(=O)CN1CCN(CC(=O)O)CCN(CC(=O)O)CCN(CC(=O)O)CC1)C(=O)O)C(=O)O)C(=O)O)C(=O)O)C(=O)O)C(=O)O)C(=O)O)C(=O)N[C@@H](CC(=O)O)C(=O)N[C@@H](Cc1ccccc1)C(N)=O [DOTA-MG-SiFA-44, DOTA(-dap(SiFA)-GABA-(γ-glu)7-F11N] | – | −2.01 ± 0.07 | 3.47 ± 0.27
